The test system of series [1] is HL-60 (acute promyelocytic leukemia). In kind it is cell-based, human. The conditions noted are these: MTT after 48 h, RPMI-1640 with 10% FBS, mean ± SD of at least three independent experiments. The method, then: (§1) Cytotoxic activities of PM III, its isoforms, and tachyplesins against seven human cell lines were evaluated. Four cancer (HL-60 acute promyelocytic leukemia, HeLa cervix adenocarcinoma, SK-BR-3 breast adenocarcinoma, A549 lung carcinoma), one transformed (HEK 293T transformed human embryonic kidney), and two normal human cell lines (HEF human embryonic fibroblasts and NHA normal human astrocytes) were used for these experiments. Cytotoxicity was measured by incubating the cells with serial dilutions of PM I, PM II, PM III, TP I, TP II, or TP III samples followed by MTT assay after 48 h. The half-maximal inhibitory concentrations (IC50) were measured as the peptide concentration at which cell viability was reduced by 50% in comparison to untreated cells (Table 3).
(§2) The following tumor and transformed cell lines were used in this study: HL-60 (acute promyelocytic leukemia), HeLa (human cervix adenocarcinoma cells), SK-BR-3 (human breast adenocarcinoma cells), A549 (human lung carcinoma cells), HEK 293T (transformed human embryonic kidney cells), HEF (human embryonic fibroblasts), and NHA (normal human astrocytes) were used as normal cell lines. Tumor and transformed cell lines were obtained from the American Type Culture Collection (ATCC; www.atcc.org). Primary cells HEF (normal human embryonic fibroblasts derived from human embryonic stem cells) and NHA (normal human astrocytes derived from human fetal brain tissue) were obtained and cultured according to the corresponding protocol. Briefly, cells were cultured in DMEM/F12 (1:1) or RPMI-1640 medium containing 10% fetal bovine serum (Invitrogen, USA) at 37 °C in the atmosphere containing 5% CO2 and 95% air according to standard mammalian tissue culture protocols and using a sterile technique. All cell lines were tested by using the LookOut® Mycoplasma PCR Detection Kit (Sigma-Aldrich, St. Louis, MO, USA) according to the manufacturer’s protocol and found to be free of Mycoplasma infection.
(§3) The colorimetric 3-(4,5-dimethylthiazol-2-yl)-2,5-diphenyltetrazolium bromide (MTT) dye reduction assay was used to determine the cytotoxicity of the polyphemusins and tachyplesins. Cells (3 × 10^3–6 × 10^3 per well) were placed into 96-well plates in Dulbecco’s modified Eagle’s medium (DMEM/F12) supplemented with 10% fetal bovine serum (FBS). After incubation in the atmosphere containing 5% CO2 and 95% air at 37 °C overnight, the media were discarded, and polyphemusins or tachyplesins solutions were added to the cell cultures up to final concentrations of 2.5, 5, 10, 25, and 50 μM in a final volume of 0.1 mL DMEM/F12 with 10% FBS. HL-60 cells (4 × 10^4 in 50 μL) were added to two-time serial dilutions of polyphemusins solutions at a final concentration of 1.25, 2.5, 5, 10, 25, and 50 μM in 50 μL RPMI-1640 with 10% FBS. 48 hours later, 20 μL of MTT (5 mg/mL) was added into each well and the plates were incubated for 3 h at 37 °C. The plates with HL-60 cells were centrifuged for 10 min at 300 g. The media were discarded and 0.1 mL of dimethyl sulfoxide and isopropanol mixture at a ratio of 1:1 (v/v) was added to each well to dissolve the crystallized formazan. The absorbance at 570 nm was measured by a microplate reader (Eppendorf, Hamburg, Germany).

For series [2], the system named is HEF (human embryonic fibroblasts). Type of series: cell-based. The conditions noted are these: HEF normal cells; MTT after 48 h, DMEM/F12 with 10% FBS; mean ± SD of at least three independent experiments. The method, then: as §1, §2, §3
Series [3] has as its system HeLa (human cervix adenocarcinoma cells). Type of series: cell-based. The conditions noted are these: MTT after 48 h, DMEM/F12 with 10% FBS, mean ± SD of at least three independent experiments. The protocol: as §1, §2, §3
In series [4] the test system is HEK 293T (transformed human embryonic kidney cells). Type of series: cell-based. Particulars: MTT after 48 h, DMEM/F12 with 10% FBS, mean ± SD of at least three independent experiments. The method, then:
as §1, §2, §3

Series [5] concerns SK-BR-3 (human breast adenocarcinoma cells). In kind it is cell-based. The conditions noted are these: MTT after 48 h, DMEM/F12 with 10% FBS, mean ± SD of at least three independent experiments. The protocol:
as §1, §2, §3

The test system of series [6] is NHA (normal human astrocytes). Type of series: cell-based. Particulars: NHA normal cells; MTT after 48 h, DMEM/F12 with 10% FBS; mean ± SD of at least three independent experiments. The method, then: as §1, §2, §3
Series [7] in a line: RP-HPLC retention time as measure of hydrophobicity. The conditions noted are these: semi-preparative RP-HPLC, C18 column, linear gradient 5 to 80% (v/v) acetonitrile in water with 0.1% TFA within 1 h; used as indicator of hydrophobicity. Type of series: physicochemical. The text has this: The PM III IC50 values were lower than those determined for PM I and PM II. We speculate that the higher cytotoxicity of PM III might be due to its higher hydrophobicity. In comparison to other tested peptides, the retention time of PM III measured during RP-HPLC indicated its higher hydrophobicity (Table 1). […] Increased hydrophobicity of these analogs caused higher cytotoxic effects. […] Cell membranes contain different phospholipids, which sustain the amphipathic features due to the formation of hydrophilic and hydrophobic domains in the membrane structure. Well-known differences between the composition of bacterial and mammalian cell membranes provide the evidence for selectivity of the peptides’ action. Bacterial membranes predominantly consist of phosphatidylserine, phosphatidylglycerol, and cardiolipin having a net negative charge. Tumor cell bilayers are also enriched in anionic molecules, such as phosphatidylserine, sialylated gangliosides, O-glycosylated mucins, and heparin sulfate. In contrast, zwitterionic phospholipids—phosphatidylcholine, phosphatidylethanolamine, and sphingomyelin—are abundant in the cytoplasmic membranes of non-cancer mammalian cells. Electrically neutral normal mammalian membranes prevent their recognition by positively charged antimicrobial peptides, and binding to these membranes is enabled by hydrophobic interactions. Thus, modulation of hydrophobicity of antimicrobial peptides, and also peptoid molecules, may be followed by non-specific interaction with erythrocytes as it was shown in previously published studies. […] Suboptimal high hydrophobic properties may not only result in increased toxicity to erythrocytes, but even in a reduction of antibacterial activity. Several protegrin-1 synthetic analogs with different hydrophobicities were characterized earlier. The analog with substitutions of valine by leucine that was more hydrophobic than naturally occurring protegrin-1 and the analog with substitutions of valine by fluorinated leucine had the most hydrophobic properties than other tested peptides. […] Therefore, half-hemolysis concentration and IC50 effective concentration were in different ranges.

The next series concerns human cell lines. Briefly: MTT cytotoxic activity assay, IC50 summarised over cell lines. Type of series: cell-based. Particulars: all human cells tested; MTT 48 h; read-out: IC50 range on human cancer, transformed, and normal cell lines. The method, then: as §1
The colorimetric 3-(4,5-dimethylthiazol-2-yl)-2,5-diphenyltetrazolium bromide (MTT) dye reduction assay was used to determine the cytotoxicity of the polyphemusins and tachyplesins. Cells (3 × 10^3–6 × 10^3 per well) were placed into 96-well plates in Dulbecco’s modified Eagle’s medium (DMEM/F12) supplemented with 10% fetal bovine serum (FBS). […] The absorbance at 570 nm was measured by a microplate reader (Eppendorf, Hamburg, Germany).

The results in this text go back to paper PMC6315362, “Cytotoxic Potential of the Novel Horseshoe Crab Peptide Polyphemusin III” (Marine Drugs, 2018).

Where a SMILES comes first, the peptide text is derived from it. Bridges are numbered along the chain shown (N, C = ends).

For orientation: IC50 means the point on the concentration scale where inhibition reaches its midpoint. For the molecule `CC(C)[C@@H]1NC(=O)[C@H](CCCNC(=N)N)NC(=O)[C@H](Cc2ccccc2)NC(=O)[C@@H](NC(=O)CNC(=O)[C@H](CCCNC(=N)N)NC(=O)[C@@H](N)CCCNC(=N)N)CSSC[C@@H](C(=O)N[C@@H](CCCNC(=N)N)C(=O)O)NC(=O)[C@H](CCCNC(=N)N)NC(=O)[C@H](CCC(N)=O)NC(=O)[C@H](Cc2ccccc2)NC(=O)[C@@H]2CSSC[C@H](NC1=O)C(=O)N[C@@H](Cc1ccc(O)cc1)C(=O)N[C@@H](CCCNC(=N)N)C(=O)NCC(=O)N[C@@H](Cc1ccccc1)C(=O)N2` [PM III, polyphemusin III] (H-RRGCFRVCYRGFCFQRCR-OH; disulfide 4-17, 8-13 (inferred); N-terminus assumed), the IC50 in series [1] worked out at 2.5 ± 0.1 µM; in series [2], 7 ± 0.4 µM; in series [3] it was 6 ± 0.2 µM; in series [4] it was 7.3 ± 0.4 µM; in series [5], 9.9 ± 0.1 µM; in series [6], 7.5 ± 0.5 µM. For the same molecule, the concentration for half-maximal inhibition (IC50) in the series on human cell lines was under 10 µM. Also, the “RP-HPLC Retention Time” value in series [7] turned out to be 36.2 min.
